# Tests used:
# [1] = Mouse model of allergic asthma (ovalbumin); type: in vivo; conditions: for methacoline-induced bronchocontriction: mouse, in vivo
# Excerpt: Mice are sensitized to ovalbumin (chicken protein) in the presence of an adjuvant (Alum) by the intraperitoneal route on day 0 and day 7. One week later, mice are challenged intranasally with ovalbumin on Days 14, 15 and 16 (more stringent model) or on Day 14 (less stringent model). This sensitization and challenge regimen leads to airway hyperresponsiveness and inflammation in the lungs, which are two dominant characteristics of human allergic asthma. In the mouse model, the in vivo airway responses are measured using a whole body plethysmograph which determines the PENH (enhanced Pause, Buxco Electronics). The PENH is a dimensionless value comprised of the peak inspiratory flow (PIF), peak expiratory flow (PEF), time of inspiration, time of expiration and relaxation time, and is considered a validated parameter of airway responsiveness. Responses to allergen challenge (OVA) are compared with animals challenged with saline only. Twenty-four hours after challenge, mice are exposed to increasing doses of methacholine (muscarinic receptor agonist) which results in smooth muscle contraction. […] In addition, a cellular infiltrate in the airway is observed in ovalbumin challenged mice when compared with the saline challenged mice. This cellular infiltrate is mainly characterized by eosinophils, but a smaller influx of neutrophils and mononuclear cells is also present.
# The use of this model for the evaluation of small molecule inhibitors of mast cell degranulation has been validated is several ways. First, using mast cell deficient mice (W/W^v) it has been shown that the ovalbumin-induced responses are dependent upon the presence of mast cells.
# CHMC cells = assay: Phosphorylation of proteins downstream of Syk / LYN kinase in the FcεRI cascade, activated CHMC cells; type: cell-based, human; conditions: FIG. 10
# [2] = test system: cultured human mast cells (CHMC); assay: CHMC low cell density IgE activation: tryptase assay; type: cell-based; conditions: anti-IgE
# In short: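 CHMC resuspended in pre-warmed MT buffer at 1000-1500 cells/well (donor-dependent) and preincubated 1 hr at 37° C, then stimulated with anti-IgE for 30 min at 37° C; unstimulated wells got MT alone. Supernatant tryptase activity read with tryptase substrate after 30 min at room temperature.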
# [3] = test system: cultured human mast cells (CHMC); assay: CHMC low cell density ionomycin activation: tryptase assay; type: cell-based
# basophil cells [4] = assay: Basophil IgE activation: histamine release assay; type: cell-based, human; conditions: Basophils, anti-IgE
# Method: (§1) The basophil activation assay was carried out using whole human peripheral blood from donors allergic to dust mites with the majority of the red blood cells removed by dextran sedimentation. Human peripheral blood was mixed 1:1 with 3% dextran T500 and RBCs were allowed to settle for 20-25 min. The upper fraction was diluted with 3 volumes of D-PBS and cells were spun down for 10 min at 1500 rpm, RT. Supernatant was aspirated and cells were washed in an equal volume MT-buffer. Finally, cells were resuspended in MT-buffer containing 0.5% DMSO in the original blood volume. 80 uL cells were mixed with 20 uL compound in the presence of 0.5% DMSO, in triplicate, in a V-bottom 96-well tissue culture plate. A dose range of 8 compound concentrations was tested resulting in a 10-point dose response curve including maximum (stimulated) and minimum (unstimulated) response. […] The cells were stimulated for 30 minutes at 37° C., 5% CO2. The plate was spun for 10 min at 1500 rpm at room temperature and 80 uL the supernatant was harvested for histamine content analysis using the histamine ELISA kit supplied by Immunotech. The ELISA was performed according to supplier's instructions.
# basophil cells [5] = assay: Basophil ionomycin activation: histamine release assay; type: cell-based, human; conditions: Basophils
# Method: as §1
# Assays for ionomycin-induced basophil cell degranulation were carried out as described for the Basophil IgE or Dustmite Activation Assay (Section 6.4.6, supra), with the exception that following incubation with compound, cells were stimulated with 20 μl of 2 μM ionomycin.
# [6] = test system: bone marrow derived mast cells (BMMC); assay: BMMC high cell density ionomycin activation: hexosaminidase; type: cell-based, mouse; conditions: second part of TABLE 1, read-out: BMMC Ionomycin hexos. IC50
# [7] = test system: bone marrow derived mast cells (BMMC); assay: BMMC high cell density IgE activation: hexosaminidase; type: cell-based, mouse; conditions: anti-IgE, second part of TABLE 1, read-out: BMMC anti-IgE hexos. IC50
# Method: (§2) After sensitizing, cells are counted, pelleted (1000 rpm, 5-10 minutes), and resuspended at 1-3×10^6 cells/ml in MT buffer. Add 100 ul of cell suspension to each well and 100 ul of compound dilutions. The final vehicle concentration is 0.5% DMSO. Incubate at 37° C. (5% CO2) for 1 hour. After 1 hour of compound treatment, stimulate cells with 6× stimulus (60 ng/ml DNP-BSA). Mix wells with the cells and allow plates to incubate at 37° C. (5% CO2) for one hour. After 1 hour incubation, pellet cells (10 minutes, 1000 RPM) and collect 200 ul per well of the supernatant, being careful not to disturb pellet, and transfer to a clean tube or 96-well plate. Place the supernatant plate on ice. During the 4-5 hour step (see next) perform the hexosiminidase assay. Resuspend cell pellet in 240 ul WEI-conditioned media containing 0.5% DMSO and corresponding concentration of compound. Incubate BMMC cells for 4-5 hours at 37° C. (5% CO2). After incubation, pellet cells (1000 RPM, 10 minutes) and collect 225 ul per well and place in −80° C. until ready to perform ELISAS. ELISAS are performed on appropriately diluted samples (determined empirically for each donor cell population so that the sample measurement falls within the standard curve) following the supplier's instructions.
# Hexosaminidase assay: In a solid black 96-well assay plate, add 50 uL hexosaminidase substrate (4-methylumbelliferyl-N-acetyl-(3-D-glucosaminide; 2 mM) to each well. Add 50 uL of BMMC cell supernatant (see above) to the hexoseaminidase substrate, place at 37° C. for 30 minutes and read the plate at 5, 10, 15, and 30 minutes on a spectrophotometer.
# B-cell line BJAB = assay: BJAB toxicity, Cell Titer Glo assay; type: cell-based; conditions: 18 hours incubation
# Method: (§3) Seed 50 μl cells (1×10^6/ml) into each well containing 50 μl compound. The final vehicle concentration is 0.5% DMSO, 1.5% MeOH. Shake plates for 1 minute to mix cells and compound. Incubate plates at 37° C. (5% CO2) for 18 hours. Next day, harvest 50 μl cells from each well, add to 50 μl Cell Titer Glo reagent ([…]). Shake plates for 1 minute. Read on luminometer.
# [8] = test system: bone marrow derived mast cells (BMMC); assay: BMMC high cell density IgE activation: TNFalpha; type: cell-based, mouse; conditions: anti-IgE, second part of TABLE 1, read-out: BMMC anti-IgE TNF-alpha IC50
# Method: (§4) Inhibition of degranulation was measured at both low and high cell density by quantifying the release of the granule specific factors tryptase, histamine and hexosaminidase. Inhibition of release and/or synthesis of lipid mediators was assessed by measuring the release of leukotriene LTC4 and inhibition of release and/or synthesis of cytokines was monitored by quantifying TNF-α, IL-6 and IL-13. Tryptase and hexosaminidase were quantified using fluorogenic substrates as described in their respective examples. […] The protocols of the various assays are provided below.
# as §2
# [9] = Immediacy (time course) of inhibitory activity; type: cell-based; conditions: FIG. 5
# [10] = test system: cultured human mast cells (CHMC); assay: CHMC high cell density IgE activation: hexos (hexosaminidase) release; type: cell-based; conditions: anti-IgE activation
# Method: as §4
# (§5) After sensitizing, cells are counted, pelleted (1000 rpm, 5-10 minutes), and resuspended at 1-2×10^6 cells/ml in MT buffer. Add 100 ul of cell suspension to each well and 100 ul of compound dilutions. The final vehicle concentration is 0.5% DMSO. Incubate at 37° C. (5% CO2) for 1 hour. After 1 hour of compound treatment, stimulate cells with 6× anti-IgE. Mix wells with the cells and allow plates to incubate at 37° C. (5% CO2) for one hour. After 1 hour incubation, pellet cells (10 minutes, 1000 RPM) and collect 200 ul per well of the supernatant, being careful not to disturb pellet. Place the supernatant plate on ice. During the 7-hour step (see next) perform tryptase assay on supernatant that had been diluted 1:500. Resuspend cell pellet in 240 ul of CM media containing 0.5% DMSO and corresponding concentration of compound. Incubate CHMC cells for 7 hours at 37° C. (5% CO2). After incubation, pellet cells (1000 RPM, 10 minutes) and collect 225 ul per well and place in −80° C. until ready to perform ELISAS. ELISAS are performed on appropriately diluted samples (determined empirically for each donor cell population so that the sample measurement falls within the standard curve) following the supplier's instructions.
# [11] = test system: cultured human mast cells (CHMC); assay: CHMC high cell density IgE activation: histamine; type: cell-based; conditions: anti-IgE activation
# Method: as §4, §5
# [12] = test system: cultured human mast cells (CHMC); assay: CHMC high cell density IgE activation: TNFalpha; type: cell-based; conditions: anti-IgE activation; read-out: CHMC high density TNF-alpha
# Method: as §4, §5
# Jurkat cells = assay: Jurkat toxicity, Cell Titer Glo assay; type: cell-based; conditions: 18 hours incubation
# Method: as §3, with “The final vehicle concentration is 0.5% DMSO, 1.5% MeOH.” left out, “(5% CO2) for 18 hours.” left out
# [13] = test system: bone marrow derived mast cells (BMMC); assay: BMMC high cell density IgE activation: LTC4; type: cell-based, mouse; conditions: anti-IgE, second part of TABLE 1
# Method: as §4, §2
# [14] = test system: bone marrow derived mast cells (BMMC); assay: BMMC high cell density IgE activation: histamine; type: cell-based, mouse; conditions: anti-IgE, second part of TABLE 1
# Method: as §4, §2
# [15] = Sheep model of allergic asthma (Ascaris suum challenge); type: in vivo; conditions: aqueous suspension
# Method: Sheep develop bronchoconstriction within minutes of exposure to inhaled antigen (Ascaris suum), with maximal airflow obstruction during the early allergic response (EAR). Release of preformed mast cell mediators is likely responsible for this early phase of airflow obstruction. […] In the sheep, AHR develops a few hours following antigen challenge, and can persist for up to 2 weeks.
# In the sheep model of allergic asthma, sheep are administered aerosols of test article via an endotracheal tube, followed by an aerosol challenge with antigen extracted from the roundworm, Ascaris suum, to which the sheep are naturally allergic. Allergen challenge leads to direct bronchoconstriction (both EAR and LAR) and a persistent non-specific AHR. These three characteristics are similar to those seen in human allergic asthmatics. The activity of the test agent is determined by changes in the lung resistance (RL), which is calculated from measurements of transpulmonary pressure, flow, and respiratory volume. […] The LAR is a less pronounced increase in RL, which starts approximately 5-6 hours following allergen challenge and is resolved by 8 hours post-challenge. Twenty-four hours after the challenge, a dose response to carbachol is measured to determine the AHR, which is expressed as the dose of carbachol required to increase RL by 400% over baseline. (This measurement is referred to as the provocative concentration of carbachol that elicits a 400% increase in RL over baseline (PC400). The data are compared to historical control data for the same individual when administered a saline control aerosol and challenged with Ascaris suum.
# [16] = 45 mg/sheep, pretreatment 60 min
smiles,measurement,setting,value
O=C(O)c1cc(=O)c2c(OCC(O)COc3cccc4oc(C(=O)O)cc(=O)c34)cccc2o1 [Cromolyn],ovalbumin-induced airway hyperresponsiveness and inflammation,[1]; data not shown,able to block
"CC(C)(C)n1nc(-c2ccc(Cl)cc2)c2c(N)ncnc21 [PP2, reference compound]",phosphorylation of proteins downstream of LYN kinase,CHMC cells,inhibition
"CNC(=O)COc1cccc(Nc2ncc(F)c(Nc3ccc4c(n3)NC(=O)CO4)n2)c1 [R921304, 5-Fluoro-N2-(3-methylaminocarbonylmethyleneoxyphenyl)-N4-[2H-pyrido[3,2-b]-1,4-oxazin-3(4H)-one-6-yl]-2,4-pyrimidinediamine]",IC50,[2],85 nM
same,IC50,[3],> 10000 nM
same,ovalbumin-induced airway hyperresponsiveness to methacholine,"[1]; intranasal, 20 mg/kg, 10 consecutive days (Day 7 through Day 16)",able to inhibit
"Fc1cnc(Nc2ccc3c(c2)OC(F)(F)C(F)(F)O3)nc1Nc1ccc2c(c1)OC(F)(F)C(F)(F)O2 [R926037, N2,N4-Bis(3,4-tetrafluoroethylendioxyphenyl)-5-fluoro-2,4-pyrimidinediamine]",IC50,basophil cells [4],> 10000 nM
same,IC50,basophil cells [5],> 10000 nM
same,IC50,[6],> 10000 nM
same,IC50,[7],> 10000 nM
"CNC(=O)COc1cccc(Nc2ncc(F)c(Nc3ccc4c(c3)OCCO4)n2)c1 [R926495, N4-(3,4-Ethylenedioxyphenyl)-5-fluoro-N2-[3-(N-methylamino)carbonylmethyleneoxyphenyl]-2,4-pyrimidinediamine]",IC50,B-cell line BJAB,> 10000 nM
same,IC50,[8],77 nM
same,onset of inhibitory activity,[9],immediacy of the inhibitory activity
same,IC50,[3],> 10000 nM
same,IC50,basophil cells [5],> 10000 nM
same,IC50,[10],100 nM
same,IC50,[11],66 nM
same,IC50,[12],362 nM
same,IC50,Jurkat cells,> 10000 nM
same,IC50,[13],240 nM
same,IC50,[14],89 nM
same,LAR and AHR (in words),"[15]; 45 mg/sheep, 60 minutes prior to allergen challenge",blocked
same,AHR (% inhibition),[15]; [16],41%
same,EAR (% inhibition),[15]; [16],33%
same,LAR (% inhibition),[15]; [16],85%
same,EAR (in words),[15],greatly reduced
same,IC50,[7],56 nM
CCCC1O[C@@H]2C[C@H]3[C@@H]4CCC5=CC(=O)C=C[C@]5(C)[C@H]4[C@@H](O)C[C@]3(C)[C@]2(C(=O)CO)O1 (stereo partly shown) [budesonide],methacoline-induced bronchocontriction,[1],inhibitory effect
C[C@@H]1C[C@H]2[C@@H]3CCC4=CC(=O)C=C[C@]4(C)[C@@]3(F)[C@@H](O)C[C@]2(C)[C@@]1(O)C(=O)CO [dexamethasone],methacoline-induced bronchocontriction,[1],inhibitory effect

# Source: patent US9499493B2, “2,4-pyrimidinediamine compounds and their uses” (Rigel Pharmaceuticals, Inc., priority 2002, dated 2016)
